19 compounds from patent US9150566B2, “2-(1,2,3-triazol-2-yl)benzamide and 3-(1,2,3-triazol-2-YL)picolinamide derivatives as orexin receptor antagonists” (ACTELION PHARMACEUTICALS LTD., priority 2011, dated 2015) can be followed below.

One experiment deals with human orexin-2 receptor (Homo sapiens (Human), UniProt O43614). Briefly: In vitro intracellular calcium measurements (FLIPR), antagonistic activity on orexin-2 receptor. The note with it: CHO cells expressing human orexin-2 receptor; FLIPR; 3 nM orexin-A agonist; 120 min antagonist incubation; geometric mean if determined several times; read-out: IC50 OX2. It is filed as cell-based. As for the experimental part: (§1) In Vitro Assay: Intracellular Calcium Measurements:
(§2) Chinese hamster ovary (CHO) cells expressing the human orexin-1 receptor and the human orexin-2 receptor, respectively, are grown in culture medium (Ham F-12 with L-Glutamine) containing 300 μg/mL G418, 100 U/mL penicillin, 100 μg/mL streptomycin and 10% heat inactivated fetal calf serum (FCS). The cells are seeded at 20′000 cells/well into 384-well black clear bottom sterile plates (Greiner). The seeded plates are incubated overnight at 37° C. in 5% CO2.
(§3) Within the Fluorescent Imaging Plate Reader (FLIPR Tetra, Molecular Devices), antagonists are added to the plate in a volume of 10 μL/well, incubated for 120 min and finally 10 μL/well of agonist is added. Fluorescence is measured for each well at 1 second intervals, and the height of each fluorescence peak is compared to the height of the fluorescence peak induced by 3 nM orexin-A with vehicle in place of antagonist. […] Optimized conditions were achieved by adjustment of pipetting speed and cell splitting regime. The calculated IC50 values may fluctuate depending on the daily cellular assay performance. Fluctuations of this kind are known to those skilled in the art.
A general note: Calcium flux is commonly read through the fluorescence of an indicator in the cells.

The next experiment addresses human orexin-1 receptor (Homo sapiens (Human), UniProt O43613). Description: In vitro intracellular calcium measurements (FLIPR), antagonistic activity on orexin-1 receptor. Type of experiment: cell-based. The note with it: CHO cells expressing human orexin-1 receptor; FLIPR; 3 nM orexin-A agonist; 120 min antagonist incubation; geometric mean if determined several times; read-out: IC50 OX1. As to the method: as §1, §2, §3

In general, IC50 refers to the point on the concentration scale where inhibition reaches its midpoint.

Sequence of human orexin-1 receptor (O43613 whole entry): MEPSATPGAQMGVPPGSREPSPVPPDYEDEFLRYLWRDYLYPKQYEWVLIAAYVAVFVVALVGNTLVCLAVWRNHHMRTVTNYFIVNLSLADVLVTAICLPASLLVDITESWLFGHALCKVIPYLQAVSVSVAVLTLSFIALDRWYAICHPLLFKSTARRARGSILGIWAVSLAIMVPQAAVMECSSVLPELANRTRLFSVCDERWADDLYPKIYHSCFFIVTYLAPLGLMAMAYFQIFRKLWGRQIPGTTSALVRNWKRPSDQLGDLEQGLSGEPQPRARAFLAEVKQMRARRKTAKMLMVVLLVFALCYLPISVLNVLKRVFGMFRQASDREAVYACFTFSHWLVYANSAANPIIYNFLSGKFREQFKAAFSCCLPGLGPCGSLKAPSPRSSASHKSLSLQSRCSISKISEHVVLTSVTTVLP
Sequence of human orexin-2 receptor (O43614 whole entry): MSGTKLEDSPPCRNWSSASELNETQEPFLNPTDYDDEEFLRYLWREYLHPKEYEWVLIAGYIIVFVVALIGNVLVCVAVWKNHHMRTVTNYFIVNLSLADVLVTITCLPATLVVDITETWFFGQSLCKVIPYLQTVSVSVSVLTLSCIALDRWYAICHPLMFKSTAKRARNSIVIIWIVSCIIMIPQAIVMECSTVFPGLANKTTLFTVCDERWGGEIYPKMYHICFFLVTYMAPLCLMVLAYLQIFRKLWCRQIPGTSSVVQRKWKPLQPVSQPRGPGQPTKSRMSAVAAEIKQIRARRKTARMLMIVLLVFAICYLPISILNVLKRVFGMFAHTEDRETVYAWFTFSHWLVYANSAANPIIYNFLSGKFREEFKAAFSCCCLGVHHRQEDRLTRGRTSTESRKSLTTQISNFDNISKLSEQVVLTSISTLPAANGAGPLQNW

Regarding `Cc1ccc(-n2nccn2)c(C(=O)N2CCO[C@H](C)[C@H]2Cc2cccc(-n3nccn3)c2)c1` (single isomer, unassigned) [Example 167, [(2R,3R)-2-Methyl-3-(3-[1,2,3]triazol-2-yl-benzyl)-morpholin-4-yl]-(5-methyl-2-[1,2,3]triazol-2-yl-phenyl)-methanone or [(2S,3R)-2-Methyl-3-(3-[1,2,3]triazol-2-yl-benzyl)-morpholin-4-yl]-(5-methyl-2-[1,2,3]triazol-2-yl-phenyl)-methanone], the IC50 at human orexin-2 receptor turned out to be 2380 nM; on human orexin-1 receptor, 19 nM.

For `Cc1cc(C(=O)N2[C@H](Cc3cccc(-n4nccn4)c3)COC[C@@H]2C)c(-n2nccn2)cc1C` [Example 74, (4,5-Dimethyl-2-[1,2,3]triazol-2-yl-phenyl)-[(3S,5R)-3-methyl-5-(3-[1,2,3]triazol-2-yl-benzyl)-morpholin-4-yl]-methanone], the IC50 turned out to be 355 nM at human orexin-2 receptor and 11 nM at human orexin-1 receptor.

As to `O=C(c1ccccc1-n1nccn1)N1CCOC[C@H]1Cc1ccc(Cl)c(-c2ncccn2)c1` [Example 194, [(R)-3-(4-Chloro-3-pyrimidin-2-yl-benzyl)-morpholin-4-yl]-(2-[1,2,3]triazol-2-yl-phenyl)-methanone], the IC50 on human orexin-2 receptor was 2260 nM; at human orexin-1 receptor it was 33 nM.

For `Cc1ccc(-n2nccn2)c(C(=O)N2CCOC[C@H]2Cc2cccc(-n3cccc3)c2)c1` [Example 38, (5-Methyl-2-[1,2,3]triazol-2-yl-phenyl)-[(R)-3-(3-pyrrol-1-yl-benzyl)-morpholin-4-yl]-methanone], the IC50 at human orexin-2 receptor came to 131 nM; at human orexin-1 receptor it was 1 nM.

As to `Cc1ccnc(-c2cccc(C[C@@H]3COCCN3C(=O)c3ccccc3-n3nccn3)c2)n1` [Example 40, {(R)-3-[3-(4-Methyl-pyrimidin-2-yl)-benzyl]-morpholin-4-yl}-(2-[1,2,3]triazol-2-yl-phenyl)-methanone], the IC50 at human orexin-2 receptor is 762 nM; on human orexin-1 receptor, 34 nM.

Take `Cc1cccc(C(=O)N2CCOC[C@H]2Cc2cc(-c3ncccn3)ccc2F)c1-n1nccn1` [Example 157, [(R)-3-(2-Fluoro-5-pyrimidin-2-yl-benzyl)-morpholin-4-yl]-(3-methyl-2-[1,2,3]triazol-2-yl-phenyl)-methanone]: the IC50 was found to be 2590 nM at human orexin-2 receptor and 39 nM at human orexin-1 receptor.

Turning to `Cc1ccc(-n2nccn2)c(C(=O)N2CCOC[C@H]2Cc2cccc(-c3cnccn3)c2)c1` [Example 41, (5-Methyl-2-[1,2,3]triazol-2-yl-phenyl)-[(R)-3-(3-pyrazin-2-yl-benzyl)-morpholin-4-yl]-methanone], the half-inhibitory concentration (IC50) came to 1040 nM at human orexin-2 receptor and 8 nM on human orexin-1 receptor.

As to `O=C(c1ccc(Cl)cc1-n1nccn1)N1CCOC[C@H]1Cc1cccc(-c2ncon2)c1` [Example 86, (4-Chloro-2-[1,2,3]triazol-2-yl-phenyl)-[(R)-3-(3-[1,2,4]oxadiazol-3-yl-benzyl)-morpholin-4-yl]-methanone], the IC50 on human orexin-2 receptor turned out to be 2650 nM; on human orexin-1 receptor, 42 nM.

Regarding `Cc1ccc(-n2nccn2)c(C(=O)N2CCOC[C@H]2Cc2cccc(-c3cccnc3)c2)c1` [Example 25, (5-Methyl-2-[1,2,3]triazol-2-yl-phenyl)-[(R)-3-(3-pyridin-3-yl-benzyl)-morpholin-4-yl]-methanone], the IC50 was found to be 1400 nM on human orexin-2 receptor and 11 nM on human orexin-1 receptor.

For `Cc1cccc(C(=O)N2CCOC[C@H]2Cc2cc(-c3ncon3)ccc2F)c1-n1nccn1` [Example 177, [(R)-3-(2-Fluoro-5-[1,2,4]oxadiazol-3-yl-benzyl)-morpholin-4-yl]-(3-methyl-2-[1,2,3]triazol-2-yl-phenyl)-methanone], the half-inhibitory concentration (IC50) is 893 nM at human orexin-2 receptor and 25 nM on human orexin-1 receptor.

With `COc1ccc(C[C@@H]2COCCN2C(=O)c2c(C)cccc2-n2nccn2)cc1-c1ncon1` [Example 63, [(R)-3-(4-Methoxy-3-[1,2,4]oxadiazol-3-yl-benzyl)-morpholin-4-yl]-(2-methyl-6-[1,2,3]triazol-2-yl-phenyl)-methanone], the concentration for half-maximal inhibition (IC50) turned out to be 49 nM on human orexin-2 receptor and 9 nM at human orexin-1 receptor.

Take `Cc1ccc(-n2nccn2)c(C(=O)N2CCOC[C@H]2Cc2cccc(-c3cccs3)c2)c1` [Example 45, (5-Methyl-2-[1,2,3]triazol-2-yl-phenyl)-[(R)-3-(3-thiophen-2-yl-benzyl)-morpholin-4-yl]-methanone]: the 50% inhibitory concentration (IC50) at human orexin-2 receptor amounted to 119 nM; on human orexin-1 receptor, 0.1 nM.

For `Cc1ccc(C(=O)N2C[C@@H](C)OC[C@H]2Cc2cc(-c3ncccn3)ccc2F)c(-n2nccn2)c1C` [Example 151, (3,4-Dimethyl-2-[1,2,3]triazol-2-yl-phenyl)-[(2R,5R)-5-(2-fluoro-5-pyrimidin-2-yl-benzyl)-2-methyl-morpholin-4-yl]-methanone], the 50% inhibitory concentration (IC50) at human orexin-2 receptor is 818 nM; on human orexin-1 receptor, 8 nM.

On to `Cc1ccc(-n2nccn2)c(C(=O)N2CCO[C@@H](C)[C@H]2Cc2cccc(-n3nccn3)c2)c1` (single isomer, unassigned) [Example 162, [(2S,3R)-2-Methyl-3-(3-[1,2,3]triazol-2-yl-benzyl)-morpholin-4-yl]-(5-methyl-2-[1,2,3]triazol-2-yl-phenyl)-methanone or [(2R,3R)-2-Methyl-3-(3-[1,2,3]triazol-2-yl-benzyl)-morpholin-4-yl]-(5-methyl-2-[1,2,3]triazol-2-yl-phenyl)-methanone], for which the IC50 at human orexin-2 receptor was 2530 nM; at human orexin-1 receptor it was 24 nM.

With `O=C(c1ccccc1-n1nccn1)N1CCOC[C@H]1Cc1ccc(O)c(-c2ncccn2)c1` [Example 55, [(R)-3-(4-Hydroxy-3-pyrimidin-2-yl-benzyl)-morpholin-4-yl]-(2-[1,2,3]triazol-2-yl-phenyl)-methanone], the half-inhibitory concentration (IC50) on human orexin-2 receptor stood at 2010 nM; on human orexin-1 receptor, 27 nM.

On to `Cc1cccc(C(=O)N2CCO[C@@H](C)[C@H]2Cc2cccc(-n3nccn3)c2)c1-n1nccn1` (single isomer, unassigned) [Example 164, [(2S,3R)-2-Methyl-3-(3-[1,2,3]triazol-2-yl-benzyl)-morpholin-4-yl]-(3-methyl-2-[1,2,3]triazol-2-yl-phenyl)-methanone or [(2R,3R)-2-Methyl-3-(3-[1,2,3]triazol-2-yl-benzyl)-morpholin-4-yl]-(3-methyl-2-[1,2,3]triazol-2-yl-phenyl)-methanone], for which the IC50 worked out at 4040 nM at human orexin-2 receptor and 29 nM at human orexin-1 receptor.

With `Cc1cc(C(=O)N2CCOC[C@H]2Cc2cc(-n3nccn3)ccc2F)c(-n2nccn2)cc1C` [Example 128, (4,5-Dimethyl-2-[1,2,3]triazol-2-yl-phenyl)-[(R)-3-(2-fluoro-5-[1,2,3]triazol-2-yl-benzyl)-morpholin-4-yl]-methanone], the IC50 on human orexin-2 receptor amounted to 30 nM; on human orexin-1 receptor, 0.7 nM.

As for `COc1ccc(C[C@@H]2COCCN2C(=O)c2ccccc2-n2nccn2)cc1-c1cccs1` [Example 10, [(R)-3-(4-Methoxy-3-thiophen-2-yl-benzyl)-morpholin-4-yl]-(2-[1,2,3]triazol-2-yl-phenyl)-methanone], the concentration for half-maximal inhibition (IC50) on human orexin-2 receptor was determined as 31 nM; at human orexin-1 receptor, 0.5 nM.

Turning to `C[C@@H]1CN(C(=O)c2ccccc2-n2nccn2)[C@H](Cc2cc(-c3ncccn3)ccc2F)CO1` [Example 148, [(2R,5R)-5-(2-Fluoro-5-pyrimidin-2-yl-benzyl)-2-methyl-morpholin-4-yl]-(2-[1,2,3]triazol-2-yl-phenyl)-methanone], the half-inhibitory concentration (IC50) stood at 1940 nM at human orexin-2 receptor and 39 nM at human orexin-1 receptor.
